Measured values taken from patent publication US9914720B2, “Crystalline form of (S)-(2-(6-chloro-7-methyl-1H-benzo[D]imidazol-2-yl)-2-methylpyrrolidin-1-yl)(5-methoxy-2-(2H-1,2,3-triazol-2-yl)phenyl)methanone and its use as orexin receptor antagonists” (IDORSIA PHARMACEUTICALS LTD, priority 2013, dated 2018).

How the values were obtained:
[1] = Gravimetric vapour sorption (GVS) analysis, hygroscopicity; assay type: physicochemical; conditions: GVS at 25° C.; for Hygroscopicity: mass change: between 40% and 80% relative humidity; for Hygroscopicity: sorption of moisture mass/mass: humidity program 40-0-95-0-95-40% RH, maximum sorption with hysteresis
Experimental: Gravimetric Vapour Sorption (GVS) Analysis
The sample was allowed to equilibrate at 40% RH before starting a pre-defined humidity program (40-0-95-0-95-40% RH, steps of 5% ΔRH and with a maximal equilibration time of 24 hours per step were applied. About 20 to 30 mg of each sample was used. The hygroscopic classification is done according to the European Pharmacopeia Technical Guide (1999, page 86), e.g., slightly hygroscopic: increase in mass is less than 2% and equal to or greater than 0.2% mass/mass; hygroscopic: increase in mass is less than 15% and equal to or greater than 2% mass/mass. The mass change between 40% relative humidity and 80% relative humidity in the first adsorption scan is considered.

Wistar rats = assay: Sedative effects: EEG, EMG and behavioural indices of alertness recorded by radiotelemetry; assay type: in vivo; conditions: 30 mg/kg po, effects analyzed over 6 hours
Experimental: Sedative Effects: EEG, EMG and Behavioural Indices of Alertness Recorded by Radiotelemetry In Vivo in Wistar Rats.
Electroencephalography (EEG) and Electromyography (EMG) signals were measured by telemetry using TL11M2-F20-EET miniature radiotelemetric implants (Data Science Int.) with two pairs of differential leads.
Surgical implantation was performed under general anesthesia with Ketamin/Xylazin, for cranial placement of one differential pair of EEG electrodes and one pair of EMG leads inserted in either side of the muscles of the neck. After surgery, rats recovered in a thermoregulated chamber and received analgesic treatment with subcutaneous buprenorphine twice a day for 2 d. They were then housed individually and allowed to recover for a minimum of 2 weeks. Thereafter, rats—in their home cage—were placed in a ventilated sound-attenuating box, on a 12-h light/12-h dark cycle, for acclimatization before continuous EEG/EMG recordings started. The telemetric technology that we used in this study allows accurate and stress-free acquisition of biosignals in rats placed in their familiar home cage environment, with no recording leads restricting their movements. Variables analyzed included four different stages of vigilance and sleep, spontaneous activity in the home cage and body temperature. Sleep and wake stages were evaluated using a rodent scoring software (Somnologica Science) directly processing electrical biosignals on 10 s contiguous epochs. The scoring is based on frequency estimation for EEG and amplitude discrimination for EMG and locomotor activity. Using these measurements, the software determines the probability that all components within each epoch best represent active waking (AW), quiet waking (QW), non-REM-sleep (NREM) or REM-sleep (REM). The percentage of total time spent in AW, QW, NREM- and REM-sleep was calculated per 12 h light or dark period. The latency to the onset of the first significant NREM- and REM-sleep episodes and the frequency and duration of those episodes were also calculated. […] All variables were subsequently recorded for 12 h following administration of the orexin receptor antagonist.

[2] = Measurement of brain and systemic concentration after oral administration; assay type: in vivo; conditions: 3 h after oral administration (100 mg/kg), n=3, male wistar rats
Experimental: Measurement of Brain and Systemic Concentration after Oral Administration:
Samples are collected in the same animal at the same time point (+/−5 min). Blood is sampled from the vena cava caudalis into containers with EDTA as anticoagulant and centrifuged to yield plasma. Brain is sampled after cardiac perfusion of 10 mL NaCl 0.9% and homogenized into one volume of cold phosphate buffer (pH 7.4). All samples are extracted with MeOH and analyzed by LC-MS/MS. Concentrations are determined with the help of calibration curves.

COc1ccc(-n2nccn2)c(C(=O)N2CCC[C@@]2(C)c2nc3c(C)c(Cl)ccc3[nH]2)c1 [COMPOUND as free base in amorphous form, [(S)-2-(5-chloro-4-methyl-1H-benzoimidazol-2-yl)-2-methyl-pyrrolidin-1-yl]-(5-methoxy-2-[1,2,3]triazol-2-yl-phenyl)-methanone]
Hygroscopicity: mass change ([1]; first adsorption scan): about 0.7%), Hysteresis and sorption | Hygroscopicity: sorption of moisture mass/mass [1]: of up to 2.7% moisture mass/mass.

COc1ccc(-n2nccn2)c(C(=O)N2CCC[C@@]2(C)c2nc3c(C)c(Cl)ccc3[nH]2)c1 [COMPOUND in crystalline form 1, (S)-(2-(6-chloro-7-methyl-1H-benzo[d]imidazol-2-yl)-2-methylpyrrolidin-1-yl)(5-methoxy-2-(2H-1,2,3-triazol-2-yl)phenyl)methanone]
Hygroscopicity (hygroscopic classification) ([1]; European Pharmacopeia Technical Guide classification, 40% to 80% RH, first adsorption scan): Non hygroscopic (mass change smaller | Hygroscopicity: mass change ([1]; first adsorption scan): then 0.1%)

COc1ccc(-n2nccn2)c(C(=O)N2CCC[C@@]2(C)c2nc3c(C)c(Cl)ccc3[nH]2)c1 [COMPOUND in crystalline form 2, (S)-(2-(6-chloro-7-methyl-1H-benzo[d]imidazol-2-yl)-2-methylpyrrolidin-1-yl)(5-methoxy-2-(2H-1,2,3-triazol-2-yl)phenyl)methanone]
Hygroscopicity: mass change ([1]; first adsorption scan): about 0.7%) | Hygroscopicity: sorption of moisture mass/mass [1]: ≤ 1.1% moisture mass/mass.

COc1ccc(-n2nccn2)c(C(=O)N2CCC[C@@]2(C)c2nc3c(C)c(Cl)ccc3[nH]2)c1 [COMPOUND, (S)-(2-(6-chloro-7-methyl-1H-benzo[d]imidazol-2-yl)-2-methylpyrrolidin-1-yl)(5-methoxy-2-(2H-1,2,3-triazol-2-yl)phenyl)methanone]
effect on NREM sleep compared to vehicle controls (Wistar rats): +27% | effect on REM sleep compared to vehicle controls (Wistar rats): +53% | effect on active wake compared to vehicle controls (Wistar rats): −24% | effect on home cage activity compared to vehicle controls (Wistar rats): −31% | concentration in brain [B] [2]: 1808 ng/g | concentration in plasma [P] [2]: 1280 ng/mL
